# Experiments:
# [1] = tested on: ovariectomized female rats; test: Lordosis behavior test (lordosis quotient) in ovariectomized female rats; format: in vivo, rat
# Procedure: Thus, lordosis was selected as an indicator of restoration of female sexual function in ovariectomized female rats and an appropriate indicator for alleviating symptoms of female sexual dysfunction.
# Adult female Sprague Dawley rats (220-250 g) from Charles River Hungary Ltd., Godollo, Hungary, were used. Animals were kept in community cages (4 animals/cage) in a climate-controlled room (23±2° C., 50-60% humidity), with a 14 hour light, 10 hour dark cycle of artificial lighting, using reversed light/dark cycle. Food and water were available ad libitum.
# After a minimum five-day acclimatization period, animals were ovariectomized under ether anesthesia, then were left to recover for 3 weeks before testing (reconvalescence). All animals were treated in accordance with the guidelines of the European Communities Council Directive (86/609/EEC) and studies were permitted by the Institutional Animal Care Commission.
# Estradiol benzoate and progesterone were obtained from Sigma Chemical Co. Inc., Budapest, Hungary. […] E2-CDS as a 3% complex with HPβCD (E2-CDS-CD) was dissolved in distilled water and diluted with 27% HPβCD solution. E2-CDS-CD was synthesized by Alchem Laboratories Corporation, Alachua, Fla., US.
# (§1) After recovery from surgery, ovariectomized female rats were divided into four groups and treated once a day for five days intravenously, via a bolus injection through the tail vein, as follows: (1) control, 27% HPβCD solution; (2) 0.003 mg/kg E2-CDS dissolved in 27% HPβCD solution; (3) 0.01 mg/kg E2-CDS dissolved in 27% HPβCD solution; and (4) 0.03 mg/kg E2-CDS dissolved in 27% HPβCD solution. A minimal number of ovariectomized (8 to 12) females were used per group. Intravenous treatments either with E2-CDS or HPβCD (controls) were carried out daily for 5 days beginning 2 days prior to the first day of behavior observations, in a volume of 0.05 ml/100 g body weight.
# The behavior test was conducted in a plexiglass observation cage during the dark cycle. During behavioral observations, only a dim red light was on.
# An experienced and active male rat was placed in the arena 5 minutes prior to the female. […] The lordosis quotient (LQ) expresses the estrogen effect on sexual receptivity and was calculated as follows: LQ=100×number of lordoses/10 mounts The observation of the sexual behavior of each female was carried out, in the case of E2-CDS, every day for 22 days; in the case of EB, investigations were carried out every day for 10 days. […] Citrated blood samples were taken by retro-orbital sinus puncture under light ether anesthesia. The samples were stored at 4° C. for one hour, then centrifuged at 1000 g for 10 minutes. Plasma was separated and stored at −80° C. until assayed. Plasma LH concentrations from individual samples were measured by double antibody radioimmunoassay kits obtained from Amersham Pharmacia Biotech, Rome, Italy. […] The limit of detection was 15 pg/ml.
# Behavioral changes were analyzed using the Mann-Whitney U test (Siegel, Nonparametric Statistics for the Behavioral Sciences, New York; McGraw-Hill Book Company, Inc., 1956). The Fisher exact test was used for percentage comparisons (Zar, Biostatistical Analysis, Prentice Hall, Inc., Englewood Cliffs, N.J., 1974). Serum LH data were analyzed for each time and treatment group by analysis of variance (ANOVA) followed by Bonferroni posthoc test.
# LH [2] = test: Plasma LH by radioimmunoassay in ovariectomized female rats; format: in vivo, rat; conditions: 0.003, 0.01 and 0.03 mg/kg i.v. daily for 5 days
# Procedure: as §1
# An experienced and active male rat was placed in the arena 5 minutes prior to the female. […] The lordosis quotient (LQ) expresses the estrogen effect on sexual receptivity and was calculated as follows: LQ=100×number of lordoses/10 mounts The observation of the sexual behavior of each female was carried out, in the case of E2-CDS, every day for 22 days; in the case of EB, investigations were carried out every day for 10 days. […] Citrated blood samples were taken by retro-orbital sinus puncture under light ether anesthesia. […] Plasma LH concentrations from individual samples were measured by double antibody radioimmunoassay kits obtained from Amersham Pharmacia Biotech, Rome, Italy. […]
# testosterone = test: Phase I repeated buccal dosing in postmenopausal women: serum testosterone; format: in vivo, human; conditions: for testosterone level exceeding baseline: 72 hours after last dose
# Procedure: Even more recently, in a Phase I clinical study of postmenopausal women, two different administration regimens of a 2.86 mg E2-CDS buccal delivery tablet were evaluated for safety and effects on hormone levels. The subjects were 12 healthy postmenopausal volunteers, divided into two groups of six. In Group A, women were dosed once daily for 10 days (10 doses); in Group B, women were dosed once every other day for 13 days (7 doses).
# 2OHE1/16OHE1 = test: Phase I: urinary estrone metabolites 2OHE1/16OHE1; format: in vivo, human; conditions: for amount of urinary 16OHE1 relative to day 1: female, human, in vivo
# Text: A brief evaluation of the results follows:
# LH [3] = conditions: cited from earlier work
# castrated male rats = conditions: cited from earlier work
# [4] = 0.01 mg/kg i.v. once a day for 5 days
# [5] = 0.03 mg/kg i.v. once a day for 5 days
smiles,measurement,setting,value
"CN1C=CCC(C(=O)O[C@H]2CC[C@H]3[C@@H]4CCc5cc(O)ccc5[C@H]4CC[C@]23C)=C1 [E2-CDS, 17β-[(1-methyl-1,4-dihydro-3-pyridinyl)carbonyloxy]estra-1,3,5(10)-trien-3-ol]","lordosis quotient, effect",[1]; 0.003 mg/kg i.v. once a day for 5 days,"slightly enhanced the lordosis quotient, but these effects were not statistically significant"
same,duration of LQ increase (after day 11 not statistically significant),[1]; [4],lasted till day 15
same,"lordosis quotient LQ, effect",[1]; [4],significantly enhanced the LQ from day 5 to day 11
same,duration of LQ enhancement,[1]; [5],from day 3 to day 18
same,"lordosis quotient LQ, effect",[1]; [5],significantly enhanced
same,"plasma LH levels, effect",LH [2],suppressed at all dosage levels
same,testosterone level exceeding baseline,testosterone; Group A,14%
same,testosterone level exceeding baseline,testosterone; Group B,28%
same,time to reach minimum testosterone level,"testosterone; day 1, Group A",6.5 ± 11.7 h
same,mean testosterone AUC24 lower than baseline AUC24,"testosterone; day 1, Group B",23.0%
same,time to reach minimum testosterone level,"testosterone; day 1, Group B",7.3 ± 11.3 h
same,increase of ratio of 2OHE1 to 16OHE1 during treatment,2OHE1/16OHE1; Group A,63.6%
same,increase of ratio of 2OHE1 to 16OHE1 during treatment,2OHE1/16OHE1; Group B,54.7%
same,"difference of mean ratios, urine","2OHE1/16OHE1; day 10-1, Group A",0.15
same,"difference of mean ratios, urine","2OHE1/16OHE1; day 13-1, Group B",0.05
same,amount of urinary 16OHE1 relative to day 1,2OHE1/16OHE1; 10 day,2.48 times
same,amount of urinary 16OHE1 relative to day 1,2OHE1/16OHE1; 13 day,1.26 times
same,LH levels,"LH [3]; 3 mg/kg single i.v., 12, 18 and 24 days post-treatment",remained very significantly reduced
same,duration of suppression of LH,"LH [3]; castrated male rats, 3 mg/kg i.v. studies",at least 24 days
same,masculine sexual behavior,castrated male rats; 3 mg/kg i.v. (Anderson '911 patent),"stimulated mounting behavior, increased intromission behavior and reduced both mount latency and intromission latency"
same,ejaculatory behavior,castrated male rats; 3 mg/kg single tail vein injection in DMSO (Anderson 1987),ejaculatory behavior was not restored
same,duration of improved masculine sexual behavior,castrated male rats; single i.v. dose of 3 mg/kg (Anderson '911 patent),28 days

# Reference: patent US20050059645A1, “Methods for the treatment of male and female sexual dysfunction” (priority 2003, published 2005)
